The source of these data is patent US10307413B2, “Tetrahydro- and dihydro-isoquinoline PRMT5 inhibitors and uses thereof” (Epizyme, Inc., priority 2013, dated 2019).

One test has as its target PRMT5/MEP50 (Homo sapiens (Human), UniProt O14744). Kind of test: PRMT5 Biochemical Assay (PRMT5/MEP50 enzyme assay on peptide substrate, 3H-SAM Flashplate). The conditions noted are these: PRMT5 biochemical assay. A digest of the protocol:
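Radiometric methylation of a biotin-tagged H4(1-15) peptide by human PRMT5/MEP50 from baculovirus/Sf9, with ³H-SAM incorporation read on streptavidin Flashplates. Buffer: Bicine pH 7.6, TCEP, BSG, Tween20; compound preincubated 30 min at 25 °C; stopped with 600 µM final unlabeled SAM. DMSO and SAH controls; IC50 from fitted % inhibition.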

Test [1] deals with symmetric di-methyl arginine in Z-138 cells. The test can be described thus: Z-138 Methylation Assay (In Cell Western for symmetric di-methyl arginine and DNA content). It counts as cell-based. Particulars: Homo sapiens, In Cell Western methylation, read-out: ICW EC50. The method, boiled down:
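In-cell western: symmetric di-methyl arginine signal ratioed to DRAQ5 DNA content after 96 h compound exposure of Z-138 cells seeded at 50,000 cells/mL.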

The next test concerns Z-138 cell line. Kind of test: Z-138 Proliferation Assay (Cell Titer Glo, 5 days). Format: cell-based. Particulars: Homo sapiens, 120 h; Z-138 cells, 5 days, Cell Titer Glo; read-out: Proliferation EC50. The method, boiled down:
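Viability via CellTiter-Glo luminescence (ATP) after 5-day incubation at 37 °C, 5% CO2. Compounds tested in triplicate, nine 3-fold steps, highest final concentration 20 μM in 0.2% DMSO; 50% inhibitory concentration by 4-parameter fit of normalized curves.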
(In ATP-based viability assays light output follows the ATP content of the culture.)

PRMT5/MEP50, sequence (O14744 other isoform, or with tags, fused parts or gaps): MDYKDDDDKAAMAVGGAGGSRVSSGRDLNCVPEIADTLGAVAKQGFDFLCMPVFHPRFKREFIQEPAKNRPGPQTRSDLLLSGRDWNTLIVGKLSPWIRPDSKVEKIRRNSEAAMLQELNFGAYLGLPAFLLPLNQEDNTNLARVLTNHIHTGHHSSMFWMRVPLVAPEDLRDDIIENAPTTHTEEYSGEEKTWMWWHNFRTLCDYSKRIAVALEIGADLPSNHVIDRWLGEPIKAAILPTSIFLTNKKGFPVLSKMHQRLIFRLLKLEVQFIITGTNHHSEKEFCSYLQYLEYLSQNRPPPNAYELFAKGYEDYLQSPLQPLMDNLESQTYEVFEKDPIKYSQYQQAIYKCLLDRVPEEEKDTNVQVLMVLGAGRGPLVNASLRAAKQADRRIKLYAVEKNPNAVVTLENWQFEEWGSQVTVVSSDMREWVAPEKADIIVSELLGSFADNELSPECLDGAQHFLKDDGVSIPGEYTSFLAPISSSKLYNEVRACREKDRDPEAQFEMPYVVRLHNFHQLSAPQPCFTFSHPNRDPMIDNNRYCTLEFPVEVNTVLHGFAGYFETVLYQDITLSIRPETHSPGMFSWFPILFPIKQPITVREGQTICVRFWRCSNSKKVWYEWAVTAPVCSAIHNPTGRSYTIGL
PRMT5/MEP50, sequence (Q9BQA1 other isoform, or with tags, fused parts or gaps partner): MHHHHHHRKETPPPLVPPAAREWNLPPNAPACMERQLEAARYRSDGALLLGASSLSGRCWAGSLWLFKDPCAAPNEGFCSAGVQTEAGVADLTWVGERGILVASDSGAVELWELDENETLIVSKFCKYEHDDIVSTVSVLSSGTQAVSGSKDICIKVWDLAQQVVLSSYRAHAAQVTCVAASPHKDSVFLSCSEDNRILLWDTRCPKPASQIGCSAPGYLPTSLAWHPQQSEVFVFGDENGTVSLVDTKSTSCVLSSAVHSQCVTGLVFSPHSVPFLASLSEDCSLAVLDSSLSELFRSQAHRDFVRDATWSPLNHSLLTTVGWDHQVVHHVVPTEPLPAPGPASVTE

The IC50 is the concentration that inhibits the measured activity by half. For the molecule `Cc1nc(NC2COC2)cc(C(=O)NC[C@H](O)CN2CCc3ccccc3C2)n1` [Compound 399], the IC50 on PRMT5/MEP50 is less than 100 nM. Besides, the EC50 was less than 100 nM in test [1] and 1000 to 10000 nM with Z-138 cell line.
As to `Cc1cnc(NC2CCNC2)cc1C(=O)NC[C@H](O)CN1CCc2ccccc2C1` (stereo partly drawn) [Compound 400], the IC50 on PRMT5/MEP50 was less than 100 nM. Moreover, the values for the EC50 (in test [1]; with Z-138 cell line) were more than 1000 nM and more than 20000 nM, respectively.
Taken in the same sequence, the figures for `Cc1cnc(NC2CCN(C)C2)cc1C(=O)NC[C@H](O)CN1CCc2ccccc2C1` (stereo partly drawn) [Compound 401] were less than 100 nM, 101 to 1000 nM and 1000 to 10000 nM.
The corresponding values for `Cc1cnc(NC2CCN(CC(F)(F)F)C2)cc1C(=O)NC[C@H](O)CN1CCc2ccccc2C1` (stereo partly drawn) [Compound 402] are less than 100 nM, less than 100 nM and 1000 to 10000 nM.
The corresponding values for `Cc1cnc(NC2CN(C)C2)cc1C(=O)NC[C@H](O)CN1CCc2ccccc2C1` [Compound 403] are less than 100 nM, more than 1000 nM and more than 20000 nM.
On to `O=C(NC[C@H](O)CN1CCc2ccccc2C1)c1cn2nc(Cl)ccc2n1` [Compound 404], for which, at PRMT5/MEP50, the IC50 is less than 100 nM. Besides, the figures for the EC50 (in test [1]; with Z-138 cell line) were 101 to 1000 nM and 10000 to 50000 nM, respectively.
The corresponding values for `O=C(NC[C@H](O)CN1CCc2ccccc2C1)c1cc(NC2COC2)nc(C(F)(F)F)n1` [Compound 405] are less than 100 nM, less than 100 nM and 101 to 1000 nM.
The corresponding values for `CCC(=O)N1CCC(Nc2cc(C(=O)NC[C@H](O)CN3CCc4ccccc4C3)ncn2)CC1` [Compound 406] are less than 100 nM, less than 100 nM and less than 100 nM.
The corresponding values for `CCCC(=O)N1CCC(Nc2cc(C(=O)NC[C@H](O)CN3CCc4ccccc4C3)ncn2)CC1` [Compound 407] are less than 100 nM, less than 100 nM and less than 100 nM.
On to `CC(C)C(=O)N1CCC(Nc2cc(C(=O)NC[C@H](O)CN3CCc4ccccc4C3)ncn2)CC1` [Compound 408], for which the IC50 on PRMT5/MEP50 is less than 100 nM. Besides, the EC50 (in test [1]; in the test with Z-138 cell line) was less than 100 nM each time.
`CC(C)CC(=O)N1CCC(Nc2cc(C(=O)NC[C@H](O)CN3CCc4ccccc4C3)ncn2)CC1` [Compound 409]: the IC50 on PRMT5/MEP50 was less than 100 nM. The EC50 (in test [1]; with Z-138 cell line) was less than 100 nM throughout.
`CC(C)(C)C(=O)N1CCC(Nc2cc(C(=O)NC[C@H](O)CN3CCc4ccccc4C3)ncn2)CC1` [Compound 410]: the IC50 at PRMT5/MEP50 was less than 100 nM. The EC50 (in test [1]; in the test on Z-138 cell line) was less than 100 nM throughout.
In the case of `CN1CCCCC1CNc1cc(C(=O)NC[C@H](O)CN2CCc3ccccc3C2)ccn1` (stereo partly drawn) [Compound 411], the IC50 on PRMT5/MEP50 was less than 100 nM. For the same molecule, the EC50 in test [1] is less than 100 nM; in the test on Z-138 cell line it was 101 to 1000 nM.
As for `CN1CCN(c2cc(C(=O)NC[C@H](O)CN3CCc4ccccc4C3)cc(NC3CCC3)n2)CC1` [Compound 413], the IC50 on PRMT5/MEP50 was less than 100 nM. The EC50 (in test [1]; with Z-138 cell line) was less than 100 nM each time.
As to `O=C(NC[C@H](O)CN1CCc2ccccc2C1)c1cc(NC2COC2)nc(N2CCCCC2)n1` [Compound 414], at PRMT5/MEP50, the IC50 is less than 100 nM. The EC50 (in test [1]; in the test on Z-138 cell line) was less than 100 nM each time.
Turning to `CCCC(=O)N1CC(Nc2cc(C(=O)NC[C@H](O)CN3CCc4ccccc4C3)ncn2)C1` [Compound 415], the IC50 on PRMT5/MEP50 was less than 100 nM. Also, the EC50 (in test [1]; in the test on Z-138 cell line) was less than 100 nM each time.
`CC(C)C(=O)N1CC(Nc2cc(C(=O)NC[C@H](O)CN3CCc4ccccc4C3)ncn2)C1` [Compound 416]: the IC50 at PRMT5/MEP50 is less than 100 nM. Further, the EC50 (in test [1]; with Z-138 cell line) was less than 100 nM each time.
Turning to `CC(C)CC(=O)N1CC(Nc2cc(C(=O)NC[C@H](O)CN3CCc4ccccc4C3)ncn2)C1` [Compound 417], the IC50 at PRMT5/MEP50 is less than 100 nM. Moreover, the EC50 (in test [1]; in the test on Z-138 cell line) was less than 100 nM throughout.
As for `O=C(NC[C@H](O)CN1CCc2ccccc2C1)c1cc(NC2CCN(C(=O)C3CC3)CC2)ncn1` [Compound 418], at PRMT5/MEP50, the IC50 was less than 100 nM. For the same molecule, the EC50 (in test [1]; in the test with Z-138 cell line) was less than 100 nM in each case.
Regarding `O=C(NC[C@H](O)CN1CCc2ccccc2C1)c1cc(NC2CCN(C(=O)C3CCC3)CC2)ncn1` [Compound 419], the IC50 at PRMT5/MEP50 is less than 100 nM. Also, the EC50 (in test [1]; in the test on Z-138 cell line) was less than 100 nM each time.
Consider `CNCCOc1cc(C(=O)NC[C@H](O)CN2CCc3ccccc3C2)ccn1` [Compound 420], for which the IC50 on PRMT5/MEP50 was less than 100 nM. In addition, the EC50 was less than 100 nM in test [1] and 1000 to 10000 nM in the test with Z-138 cell line.
Regarding `O=C(NC[C@H](O)CN1CCc2ccccc2C1)c1ccnc(OCCNCC(F)(F)F)c1` [Compound 421], at PRMT5/MEP50, the IC50 is less than 100 nM. In addition, the EC50 in test [1] is less than 100 nM; with Z-138 cell line, 1000 to 10000 nM.
For the molecule `O=C(NC[C@H](O)CN1CCc2ccccc2C1)c1ncnc(NC2COC2)c1F` [Compound 422], on PRMT5/MEP50, the IC50 was less than 100 nM. Besides, the EC50 is less than 100 nM in test [1] and 1000 to 10000 nM in the test with Z-138 cell line.
Turning to `CC(C)N1CC(Nc2cc(C(=O)NC[C@H](O)CN3CCc4ccccc4C3)ncn2)C1` [Compound 423], the IC50 on PRMT5/MEP50 is less than 100 nM. Also, the EC50 in test [1] fell in the range of 101 to 1000 nM; in the test on Z-138 cell line it was 10000 to 50000 nM.
Regarding `CC(C)(C)C(=O)N1CC(Nc2cc(C(=O)NC[C@H](O)CN3CCc4ccccc4C3)ncn2)C1` [Compound 424], the IC50 on PRMT5/MEP50 was less than 100 nM. In addition, the EC50 was less than 100 nM in test [1] and 101 to 1000 nM with Z-138 cell line.
As for `O=C(NC[C@H](O)CN1CCc2ccccc2C1)c1cc(NC2CN(C(=O)C3CC3)C2)ncn1` [Compound 425], the IC50 on PRMT5/MEP50 was less than 100 nM. Also, the EC50 (in test [1]; in the test with Z-138 cell line) was less than 100 nM throughout.
With `Nc1cc(C(=O)NC[C@H](O)CN2CCc3ccccc3C2)ncn1` [Compound 429], the IC50 on PRMT5/MEP50 lay in the range of 101 to 1000 nM. Besides, the EC50 lay in the range of 101 to 1000 nM in test [1] and 10000 to 50000 nM in the test with Z-138 cell line.
With `CC1(C)CC(Nc2cc(C(=O)NC[C@H](O)CN3CCc4ccccc4C3)ncn2)CC(C)(C)N1` [Compound 430], at PRMT5/MEP50, the IC50 was less than 100 nM. Also, the EC50 in test [1] was 101 to 1000 nM; with Z-138 cell line, 1000 to 10000 nM.
The corresponding values for `O=C(NC[C@H](O)CN1CCc2ccccc2C1)c1cc(Nc2cc[nH]n2)ncn1` [Compound 431] are less than 100 nM, less than 100 nM and 1000 to 10000 nM.
The corresponding values for `Cc1cc(Nc2cc(C(=O)NC[C@H](O)CN3CCc4ccccc4C3)ncn2)n[nH]1` [Compound 432] are less than 100 nM, less than 100 nM and 1000 to 10000 nM.
As for `Cc1cc(Nc2cc(C(=O)NC[C@H](O)CN3CCc4ccccc4C3)ccn2)n[nH]1` [Compound 433], the IC50 on PRMT5/MEP50 was less than 100 nM. Further, the EC50 was less than 100 nM in test [1] and 1000 to 10000 nM in the test on Z-138 cell line.
Consider `O=C(NC[C@H](O)CN1CCc2ccccc2C1)c1cc(O)nc(NC2CCC2)c1` [Compound 434], for which, at PRMT5/MEP50, the IC50 was less than 100 nM. Moreover, the figures for the EC50 (in test [1]; with Z-138 cell line) were less than 100 nM and 101 to 1000 nM, respectively.
As for `O=C(NC[C@H](O)CN1CCc2ccccc2C1)c1cc(NC2COC2)ccn1` [Compound 435], the IC50 on PRMT5/MEP50 was less than 100 nM. The figures for the EC50 (in test [1]; in the test with Z-138 cell line) were less than 100 nM and 101 to 1000 nM, respectively.
`O=C(NC[C@H](O)CN1CCc2ccccc2C1)c1cccc(NC2COC2)n1` [Compound 436]: the IC50 on PRMT5/MEP50 was less than 100 nM. The EC50 in test [1] is less than 100 nM; with Z-138 cell line, 1000 to 10000 nM.
Consider `O=C(NC[C@H](O)CN1CCc2ccccc2C1)c1ncnc(NC2COC2)c1Cl` [Compound 437], for which the IC50 on PRMT5/MEP50 is less than 100 nM. Also, the EC50 in test [1] was less than 100 nM; in the test on Z-138 cell line, 1000 to 10000 nM.
Regarding `CC(C)CN1CC(Nc2cc(C(=O)NC[C@H](O)CN3CCc4ccccc4C3)ncn2)C1` [Compound 438], on PRMT5/MEP50, the half-maximal inhibitory concentration (IC50) is less than 100 nM. The EC50 in test [1] fell in the range of 101 to 1000 nM; in the test on Z-138 cell line it was 1000 to 10000 nM.
Taken in the same sequence, the figures for `O=C(NC[C@H](O)CN1CCc2ccccc2C1)c1cc(OC2CNC2)ncn1` [Compound 439] were less than 100 nM, 101 to 1000 nM and 10000 to 50000 nM.
As for `CC(=O)N[C@H]1C[C@H](Nc2cc(C(=O)NC[C@H](O)CN3CCc4ccccc4C3)ncn2)C1` [Compound 440], the IC50 at PRMT5/MEP50 was less than 100 nM. Moreover, the EC50 in test [1] is less than 100 nM; in the test with Z-138 cell line, 101 to 1000 nM.
As for `CC(=O)N1CC(Nc2cc(C(=O)NC[C@H](O)CN3CCc4ccccc4C3)nc(N3CCCCC3)n2)C1` [Compound 441], the IC50 at PRMT5/MEP50 is less than 100 nM. The EC50 (in test [1]; in the test on Z-138 cell line) was less than 100 nM each time.
Regarding `CC(=O)N1CC(Nc2cc(C(=O)NC[C@H](O)CN3CCc4ccccc4C3)nc(N3CCN(C)CC3)n2)C1` [Compound 442], the IC50 on PRMT5/MEP50 is less than 100 nM. Also, the figures for the EC50 (in test [1]; in the test with Z-138 cell line) were less than 100 nM and 101 to 1000 nM, respectively.
On to `CC(=O)N1CC(Nc2cc(C(=O)NC[C@H](O)CN3CCc4ccccc4C3)nc(N3CCOCC3)n2)C1` [Compound 443], for which the IC50 on PRMT5/MEP50 is less than 100 nM. Besides, the EC50 (in test [1]; in the test with Z-138 cell line) was less than 100 nM each time.
As to `CC(=O)N1CC(Nc2cncc(C(=O)NC[C@H](O)CN3CCc4ccccc4C3)c2)C1` [Compound 444], the IC50 at PRMT5/MEP50 is less than 100 nM. Moreover, the EC50 in test [1] is less than 100 nM; in the test with Z-138 cell line, 101 to 1000 nM.
